Experimental data taken from patent US20030119775A1, “Respiration uncoupling protein” (DUKE UNIVERSITY, priority 1997, published 2003).

Key:
[1] = system: UCP2 mRNA; experiment: UCP2 mRNA levels in mouse tissues after treatment; type: in vivo, Swiss mice
Source text: Regulation of UCP2 has been examined for factors that would regulate UCP1. In 11-week-old fed male Swiss mice, UCP2 mRNA was detected in BAT, WAT, thigh muscle and liver. […] Thus, UCP2 is regulated very differently than UCP1, which is induced by cold and β3 agonists.

[2] = system: mitochondria isolated from yeast; experiment: Respiratory rates in mitochondria isolated from yeast; type: biochemical
Source text: Respiratory rates have been measured in mitochondria isolated from yeast containing the empty pYeDP vector and the pUCP2 vector (Table 1). […] Addition of ADP stimulates respiration more in control mitochondria, again showing the UCP2 mitochondria are more uncoupled.

[3] = system: UCP2 expression in Rat Basophilic Leukemia cell (RBL); experiment: Northern blot of UCP2 expression in RBL cells; type: cell-based; set-up: dose or concentration left out as unconfirmed
Source text: (A) A tumor mast cell line, the Rat Basophilic Leukemia cell (RBL), is a model system for studies of immune system signal transduction. In the RBL cell, binding of an antigen to the IgE receptor on the cell surface results in the activation of phospholipase C-gamma (PLCg). This event leads to the activation of protein kinase C (PKC) and an increase in intracellular calcium which are required for degranulation and gene expression in RBL cells. Several drugs can mimic the intracellular events and degranulation occuring in this cell type in response to antigen activation of the IgE receptor. The inophore Ionomycin causes the release of calcium from intracellular calcium stores and the phorbol ester PMA is able to directly activate PKC. Both of these drugs are required to achieve maximal activation of RBL cells. In order to determine the expression level of UCP2 in RBL cells, these cells were treated with Ionomycin ([…]), PMA ([…]) or both drugs.

[4] = system: UCP2 mRNA in macrophage RAW cells; experiment: UCP2 mRNA in cultured macrophage RAW cells, northern normalized for actin; type: cell-based, mouse; details: macrophages treated with LPS
Source text: (B) Bacterial lipopolysaccharide (LPS) regulates UCP2 mRNA in macrophages. Bacterial LPS is known to induce many of the features of infection, including fever. Thioglycolate elicited mouse macrophage (peritoneal exudate cells, PEC) have been studied for regulation of UCP2 mRNA by LPS. […] A study has also be made of UCP2 expression in cultured mouse macrophage RAW cells. These cells express UCP2. […] The LPS mediated decrease of UCP2 is not affected by indomethacin or by PGE2. All fo the macrophage northerns are normalized for actin expression and have been repeated at least once. […] The results are consistent with a role of UCP2 in immune function.

[5] = Roe et al, Metabolism 46:359 (1997); cited from earlier work
[6] = system: mitochondrial potential of transformed yeast; experiment: Flow cytometry of mitochondrial membrane potential with DiOC6(3) in transformed yeast; type: cell-based, Saccharomyces cerevisiae
Source text: FIG. 2. Flow cytometry analysis of membrane potential following the expression of UCP2 in S. cerevisiae; comparison of wild-type UCP1 and non-active UCP1 mutants. The number of cells (counts, Y-axis) is represented on a logarithmic scale of 1024 channels. The X-axis is a logarithmic scale of fluorescence intensity. A shift of the curve towards the left indicates a decreased mitochondrial potential. The horizontal bar on the left indicates the position of cells treated with mCICCP, a chemical uncoupler. The expression of UCP2, UCP1 or UCPmut mRNA in recombinant yeast, as well as its absence in wild type yeast, was checked by Northern blots.
(§1) Yeast transfections and functional analysis using flow cytometry. The diploid yeast (Saccharomyces cerevisiae) strain W303 (a/α; ade2-10; his 3-11-15; leu2-2, 112; ura3-1; can1-100; try-Δ1) was used for expression of UCP2. The pYedP-UCP2 or UCPmut expression vectors were introduced into yeast by electroporation and transformants were selected for uracil […] as described by Bouillaud et al (EMBO J. 13:1990 (1994)). Expression of the UCP2, UCP1 or UCPmut under the control of the gal-cyc promoter was induced by galactose in the absence of glucose. Growth of yeast for flow cytometry analysis and measurement of mitochondrial membrane potential using the DiOC6(3) fluorescent probe (3,3′-dihexyloxacarbocyanine iodine, Molecular Probes, Eugene, Oreg.) are described by Bouillaud et al (EMBO J. 13:1990 (1994)).
The in vivo decrease of membrane potential associated with uncoupling of respiration was analyzed by flow cytometry of yeast labeled with the potential sensitive probe DiOC6(3) . […] In the case of UCP2, 2 peaks were observed, one equivalent to cells expressing UCP1 and a second peak corresponding to a very low mitochondrial potential. Mean fluorescence intensities were: empty vector, 65.5; UCPmut, 43.0; UCP1, 22.5; UCP2, 15.5 and UCP2+mCICCP, 0.4 (FIG. 2). Very similar results were obtained in two additional experiments.

[7] = system: yeast (Saccharomyces cerevisiae) strain W303; experiment: Growth rate (instantaneous generation time) of transformed yeast after galactose induction; type: cell-based; details: liquid medium, galactose-induced expression; ±SD
Source text: as §1
To test the hypothesis that UCP2 is an uncoupling protein, yeast were transfected with UCP2 in an expression vector as previously reported for UCP1 (Bouillaud et al, EMBO J. 13:1990 (1994)). Rates of growth in liquid medium of transformed yeast were measured in the presence of galactose, which induces expression. Instantaneous generation times were compared after induction of vector, UCP2, control (empty) and UCP1 expression vectors. […]

[8] = yeast carrying the expression vector, lower = decreased mitochondrial potential

C[C@H](Cc1ccc2c(c1)OC(C(=O)[O-])(C(=O)[O-])O2)NC[C@H](O)c1cccc(Cl)c1.[Na+].[Na+] [CL316,243]
Effect on UCP2 mRNA levels ([1]; 11-week-old fed male Swiss mice, BAT, WAT, thigh muscle and liver, treatment for 10 days): did not influence UCP2 mRNA levels

N#CC(C#N)=NNc1ccc(OC(F)(F)F)cc1 [FCCP]
Respiratory rate increase factor upon addition of uncoupler ([2]; control (pYeDP) mitochondria): 7.1 | Respiratory rate increase factor upon addition of uncoupler ([2]; pUCP2 mitochondria): 4.3

C[C@H](CCC(=O)O)C[C@H](C)C[C@H](C)C(=O)/C=C(\O)[C@H](C)C[C@H](C)C/C=C/[C@@H](C)[C@@H](O)[C@@H](C)[C@@H](O)C[C@@H]1CC[C@@](C)([C@H]2CC[C@@](C)([C@@H](C)O)O2)O1 [Ionomycin]
Induction of UCP2 expression versus untreated control cells [3]: ~4 fold

CCCCC[C@H](O)/C=C/[C@H]1[C@H](O)CC(=O)[C@@H]1C/C=C\CCCC(=O)O [PGE2]
Effect on the LPS mediated decrease of UCP2 [4]: not affected

CCCCCCCCCCCCCC(=O)O[C@@H]1[C@@H](C)[C@@]2(O)[C@@H](C=C(CO)C[C@]3(O)C(=O)C(C)=C[C@@H]23)[C@@H]2C(C)(C)[C@]12OC(C)=O [PMA]
Induction of UCP2 expression versus untreated control cells [3]: ~4 fold

COc1ccc2c(c1)c(CC(=O)O)c(C)n2C(=O)c1ccc(Cl)cc1 [indomethacin]
Effect on increased O2 consumption associated with cachexia of malignancy [5]: attenuated | Effect on the LPS mediated decrease of UCP2 [4]: not affected

N#CC(C#N)=NNc1cccc(Cl)c1 [mCICCP]
Mean fluorescence intensity (DiOC6(3)) ([6]; UCP2-expressing yeast treated with mCICCP): 0.4

leptin: leptin, shown to increase sympathetic outflow to brown fat
Effect on UCP2 expression ([1]; 2 μg, 2×/day for 4 days): failed to increased UCP2 expression | Influence on UCP2 expression ([1]; general statement: in vitro or in vivo): not to influence UCP2 expression

B1: UCP2: uncoupling protein-2, expressed in yeast from the pYedP-UCP2 expression vector (protein, UniProt P55851 1-309, looked up)
Dicarboxylate carrier SLC25A8: MVGFKATDVPPTATVKFLGAGTAACIADLITFPLDTAKVRLQIQGESQGPVRATASAQYRGVMGTILTMVRTEGPRSLYNGLVAGLQRQMSFASVRIGLYDSVKQFYTKGSEHASIGSRLLAGSTTGALAVAVAQPTDVVKVRFQAQARAGGGRRYQSTVNAYKTIAREEGFRGLWKGTSPNVARNAIVNCAELVTYDLIKDALLKANLMTDDLPCHFTSAFGAGFCTTVIASPVDVVKTRYMNSALGQYSSAGHCALTMLQKEGPRAFYKGFMPSFLRLGSWNVVMFVTYEQLKRALMAACTSREAPF
Instantaneous generation time [7]: 260 ± 29 min | Mean fluorescence intensity (DiOC6(3)) [6, 8]: 15.5

B2: UCP1: uncoupling protein-1 of brown adipose tissue, expressed in yeast for comparison (protein, UniProt P25874 1-307, looked up)
Mitochondrial brown fat …: MGGLTASDVHPTLGVQLFSAGIAACLADVITFPLDTAKVRLQVQGECPTSSVIRYKGVLGTITAVVKTEGRMKLYSGLPAGLQRQISSASLRIGLYDTVQEFLTAGKETAPSLGSKILAGLTTGGVAVFIGQPTEVVKVRLQAQSHLHGIKPRYTGTYNAYRIIATTEGLTGLWKGTTPNLMRSVIINCTELVTYDLMKEAFVKNNILADDVPCHLVSALIAGFCATAMSSPVDVVKTRFINSPPGQYKSVPNCAMKVFTNEGPTAFFKGLVPSFLRLGSWNVIMFVCFEQLKRELSKSRQTMDCAT
Instantaneous generation time [7]: 226 ± 10 min | Mean fluorescence intensity (DiOC6(3)) [6, 8]: 22.5
